Data published in US20210393621A1, “COMBINATION SEROTONIN SPECIFIC REUPTAKE INHIBITOR AND SEROTONIN 1A RECEPTOR PARTIAL AGONIST FOR REDUCING L-DOPA-INDUCED DYSKINESIA” (The Research Foundation for The State University of new York, priority 2018, published 2021).
Like-named read-outs stand apart in the source and are kept apart here.

What was measured:
[1] = system: L-DOPA-primed 6-OHDA-lesioned rats; experiment: Experiment 3: AIMs with 5-HT1AR or 5-HT1BR antagonist before Vilazodone and L-DOPA; format: in vivo, Sprague-Dawley rats
Experimental: In each study, the LD-primed rats received (FIG. 4A) the 5-HT1AR antagonist WAY100635 [WAY; 0 or 0.5 mg/kg, s.c.] or (FIG. 4B) the 5-HT1BR antagonist NAS [NAS; 0 or 0.3 mg/kg, s.c.]) 5 min prior to VZD (0 or 10 mg/kg, s.c.) injected 5 min prior to LD (6 mg/kg, s.c.) in a within-subjects counterbalanced design. ALO AIMs were evaluated and are shown for every 10 min for 3 h after LD administration.
All 6-OHDA-lesioned rats (n=17) were tested on the FAS prior to treatment regimens to establish baseline motor performance. Three-weeks post-surgery, all rats were primed with L-DOPA (6 mg/kg, s.c.) for 14 days.

[2] = system: extracellular 5-HT, dopamine and norepinephrine; conditions: cited from earlier work; for maximal increase of extracellular 5-HT: rats, acute systemic injection, measured 3 h after injection
5-HT1D = 5-HT1D (Homo sapiens, UniProt P28221); conditions: cited from earlier work
SERT = target: T1, SERT (Rattus norvegicus, UniProt P31652); conditions: rat cortex and hippocampus ex vivo, cited from earlier work
T1 construct: 50% occupancy at 1-3 mg/kg in rat cortex and hippocampus ex vivo; from tissue; host or cells: rat cortex and hippocampus

5-HT1A receptor [3] = target: T2, 5-HT1A receptor (Homo sapiens, UniProt P08908); conditions: cited from earlier work
T2 sequence (P08908 1-422): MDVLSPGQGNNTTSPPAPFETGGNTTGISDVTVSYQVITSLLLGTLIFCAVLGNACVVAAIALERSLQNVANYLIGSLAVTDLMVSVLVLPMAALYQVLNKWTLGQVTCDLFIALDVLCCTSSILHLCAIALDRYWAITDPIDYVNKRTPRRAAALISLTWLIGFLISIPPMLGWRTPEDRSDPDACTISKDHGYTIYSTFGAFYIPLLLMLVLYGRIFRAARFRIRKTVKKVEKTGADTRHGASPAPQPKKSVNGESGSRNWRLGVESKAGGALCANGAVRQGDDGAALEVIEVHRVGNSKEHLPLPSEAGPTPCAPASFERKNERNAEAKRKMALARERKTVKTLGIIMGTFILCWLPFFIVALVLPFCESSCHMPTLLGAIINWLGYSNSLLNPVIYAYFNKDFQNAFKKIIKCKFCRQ

5-HT2C = 5-HT2C (Homo sapiens, UniProt P28335); conditions: cited from earlier work
[4] = system: 6-OHDA-lesioned hemi-parkinsonian rats; experiment: Experiment 2: AIMs, LID development in L-DOPA-naive hemi-parkinsonian rats; format: in vivo, Sprague-Dawley rats; conditions: treatment naive rats; VZD 10 or 20 mg/kg + L-DOPA 6 mg/kg, 3 weeks; vs Vilazodone (0 mg/kg)+L-DOPA (6 mg/kg)
Experimental: Baseline forepaw adjusting step (FAS) data was collected 3 weeks after sham or […] lesion surgery, but prior to LD exposure. Sham animals received daily VZD (0 mg/kg)+L-DOPA (0 mg/kg) and 6-OHDA-lesioned animals received daily VZD (0, 10 or 20 mg/kg; s.c.)+LD (6 mg/kg; s.c.). All VZD injections were administered 5 min prior to LD. (FIG. 2A) AIMs and (FIG. 2B) FAS were evaluated on days 1, 8, 15, and 22. AIMs values expressed are the median sum of axial, limb, and orolingual (ALO) behaviors. ALO AIMs were evaluated every 10 min for 3 h post-LD administration. Values are expressed as medians [±median absolute difference (M.A.D.)]. FAS were evaluated 60 min post LD and are expressed as the mean overall steps […] to lesion multiplied by 100.
After recovery, FAS established baseline motor disability. 6-OHDA-lesioned animals were divided into 3 equally disabled groups. […] AIMs ([…]) and FAS (FIG. 2B) were measured on Days 1, 8, 15, and 22 of treatment.
Beginning 10 min post-treatment, a trained and blinded observer assigned a severity score (0-4) to each of the ALO AIMs based on 1 min ratings every 10 min for 3 h: 0, not present; 1, present from 1-29 s; 2, present 30-59 s; 3, present all 60 s, but interruptible by a cylinder tap; 4, present 60 s and not interruptible by a cylinder tap.

[5] = target: dopamine transporter (DAT) (Homo sapiens, UniProt Q01959); conditions: read-out: Ki for DAT (dopamine reuptake site); cited from earlier work
[6] = system: 6-OHDA-lesioned hemi-parkinsonian rats; experiment: Experiment 2: forepaw adjusting steps (FAS); format: in vivo, Sprague-Dawley rats; conditions: Vilazodone 10 mg/kg + L-DOPA 6 mg/kg; by Day 15
Experimental: […].). All VZD injections were administered 5 min prior to LD. […] AIMs values expressed are the median sum of axial, limb, and orolingual (ALO) behaviors. […] Values are expressed as medians [±median absolute difference (M.A.D.)]. […] Forepaw adjusting steps (FAS): The FAS test is a measure of forelimb akinesia performed according to previous protocols (Bishop et al., 2012; Chang et al., 1999). Data are presented as mean percent intact stepping where the sum of the total steps with the lesioned forepaw was divided by the total steps with the unlesioned forepaw multiplied by 100. Lower percent intact scores indicate greater forelimb akinesia. Prior to baseline, rats received 2 acclimation periods. On-treatment FAS was performed 60 min post-L-DOPA.

[7] = system: striatal c-Fos, PPD, PPE, PPT and 5-HT1AR mRNA; experiment: Experiment 2: real-time RT-PCR of striatal gene expression
[8] = cited from earlier work
5-HT1A receptor [9] = target: T2, 5-HT1A receptor; set-up: expressed in transfected cells; host or cells: SF9 cells; conditions: 5-HT1A receptor expressed in SF9 cells; cited from earlier work
5-HT2A = 5-HT2A (Homo sapiens, UniProt P28223); conditions: cited from earlier work
[10] = lesioned striata, VZD 0, 10 or 20 mg/kg + L-DOPA 6 mg/kg daily, day 23, 60 min post-injection
[11] = administered with either a fatty or light meal

T1 sequence (P31652 whole entry): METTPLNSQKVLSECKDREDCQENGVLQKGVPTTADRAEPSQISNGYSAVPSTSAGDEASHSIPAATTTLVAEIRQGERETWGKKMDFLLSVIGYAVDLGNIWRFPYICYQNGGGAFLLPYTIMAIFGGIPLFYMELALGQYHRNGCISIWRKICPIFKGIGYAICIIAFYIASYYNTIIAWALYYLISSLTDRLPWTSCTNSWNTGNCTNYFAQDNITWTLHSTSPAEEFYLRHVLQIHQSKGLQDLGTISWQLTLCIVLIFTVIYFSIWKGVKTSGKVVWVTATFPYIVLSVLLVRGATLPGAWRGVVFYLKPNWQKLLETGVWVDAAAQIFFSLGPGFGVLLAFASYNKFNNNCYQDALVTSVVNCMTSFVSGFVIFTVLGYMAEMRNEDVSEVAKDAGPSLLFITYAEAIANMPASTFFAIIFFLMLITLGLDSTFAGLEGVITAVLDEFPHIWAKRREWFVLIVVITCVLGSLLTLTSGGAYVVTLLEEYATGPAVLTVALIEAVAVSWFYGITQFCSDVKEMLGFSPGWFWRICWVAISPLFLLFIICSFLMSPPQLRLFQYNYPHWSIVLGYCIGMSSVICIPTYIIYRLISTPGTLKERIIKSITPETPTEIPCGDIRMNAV
Chain of 5-HT2C (P28335 33-458, species assumed): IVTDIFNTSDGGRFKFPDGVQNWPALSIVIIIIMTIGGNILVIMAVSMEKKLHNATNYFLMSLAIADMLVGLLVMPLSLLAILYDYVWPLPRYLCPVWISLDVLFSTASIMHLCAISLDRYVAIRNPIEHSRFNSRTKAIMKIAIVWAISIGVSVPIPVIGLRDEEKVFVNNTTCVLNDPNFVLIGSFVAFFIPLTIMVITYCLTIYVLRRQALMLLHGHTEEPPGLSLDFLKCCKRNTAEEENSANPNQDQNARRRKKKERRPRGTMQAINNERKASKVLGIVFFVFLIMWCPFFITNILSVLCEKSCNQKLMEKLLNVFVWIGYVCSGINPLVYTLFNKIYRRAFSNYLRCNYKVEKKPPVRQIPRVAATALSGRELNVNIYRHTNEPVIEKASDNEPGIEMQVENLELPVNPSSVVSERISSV
Chain of 5-HT2A (P28223 whole entry, species assumed): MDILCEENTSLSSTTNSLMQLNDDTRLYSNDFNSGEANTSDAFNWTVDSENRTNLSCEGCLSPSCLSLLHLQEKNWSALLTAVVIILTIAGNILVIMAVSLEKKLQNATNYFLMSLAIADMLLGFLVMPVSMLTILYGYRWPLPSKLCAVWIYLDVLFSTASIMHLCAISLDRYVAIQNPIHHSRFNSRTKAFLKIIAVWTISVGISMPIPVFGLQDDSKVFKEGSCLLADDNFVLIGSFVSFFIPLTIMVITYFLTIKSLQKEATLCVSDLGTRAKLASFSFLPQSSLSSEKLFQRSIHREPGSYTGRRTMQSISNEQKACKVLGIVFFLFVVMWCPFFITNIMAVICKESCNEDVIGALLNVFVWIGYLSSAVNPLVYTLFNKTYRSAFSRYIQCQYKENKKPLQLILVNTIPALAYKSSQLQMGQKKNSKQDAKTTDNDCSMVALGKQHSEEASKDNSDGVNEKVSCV
Chain of dopamine transporter (DAT) (Q01959 whole entry, species assumed): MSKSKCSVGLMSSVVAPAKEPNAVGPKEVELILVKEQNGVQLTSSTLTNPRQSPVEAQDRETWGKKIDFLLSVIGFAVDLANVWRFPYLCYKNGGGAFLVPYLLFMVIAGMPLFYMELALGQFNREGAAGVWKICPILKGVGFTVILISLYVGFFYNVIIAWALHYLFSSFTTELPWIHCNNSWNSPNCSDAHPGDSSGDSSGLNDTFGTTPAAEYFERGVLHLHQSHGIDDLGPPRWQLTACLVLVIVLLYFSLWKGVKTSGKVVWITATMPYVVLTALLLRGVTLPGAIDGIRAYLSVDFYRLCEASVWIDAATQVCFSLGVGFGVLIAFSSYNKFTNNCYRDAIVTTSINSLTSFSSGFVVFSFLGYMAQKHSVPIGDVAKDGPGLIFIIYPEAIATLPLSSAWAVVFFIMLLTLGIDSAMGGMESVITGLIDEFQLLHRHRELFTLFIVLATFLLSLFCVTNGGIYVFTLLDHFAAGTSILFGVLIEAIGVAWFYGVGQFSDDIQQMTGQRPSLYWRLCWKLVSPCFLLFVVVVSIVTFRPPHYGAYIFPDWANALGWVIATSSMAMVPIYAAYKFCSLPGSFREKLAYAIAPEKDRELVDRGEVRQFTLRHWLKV
Chain of 5-HT1D (P28221 whole entry, species assumed): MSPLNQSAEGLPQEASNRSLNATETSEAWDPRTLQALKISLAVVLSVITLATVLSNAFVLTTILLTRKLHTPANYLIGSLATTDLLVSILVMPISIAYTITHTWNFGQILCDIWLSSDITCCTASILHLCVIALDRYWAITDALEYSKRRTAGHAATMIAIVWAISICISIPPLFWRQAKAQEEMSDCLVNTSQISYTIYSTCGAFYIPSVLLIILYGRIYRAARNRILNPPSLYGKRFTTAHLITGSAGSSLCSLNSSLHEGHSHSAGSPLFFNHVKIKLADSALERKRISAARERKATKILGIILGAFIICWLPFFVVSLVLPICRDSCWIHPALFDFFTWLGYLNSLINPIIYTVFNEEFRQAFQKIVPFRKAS

Cl.N#Cc1ccc2[nH]cc(CCCCN3CCN(c4ccc5oc(C(N)=O)cc5c4)CC3)c2c1 [Vilazodone, 5-{4-[4-(5-cyano-3-indolyl)-butyl]-1-piperazinyl}-benzofuran-2-carboxamide hydrochloride]
ALO AIMs, 5-HT1BR study ([1]; NAS-181 0 or 3.0 mg/kg, then VZD 0 or 10 mg/kg, then L-DOPA 6 mg/kg, s.c.): significantly reduced ALO AIMs
LID duration, time course ([1]; VZD 10 mg/kg + L-DOPA 6 mg/kg): little effect on LID duration
peak dyskinesia, time course ([1]; VZD 10 mg/kg + L-DOPA 6 mg/kg): reduced peak dyskinesia
summed ALO AIMs, 5-HT1AR study ([1]; WAY100635 0 or 0.5 mg/kg, then VZD 0 or 10 mg/kg, then L-DOPA 6 mg/kg, s.c.): significantly reduced ALO AIMs
maximal increase of extracellular 5-HT ([2]; frontal cortex): 527%
extracellular dopamine and norepinephrine ([2]; rat brain, vilazodone 1 and 10 mg/kg): caused no change
maximal increase of extracellular 5-HT ([2]; ventral hippocampus): 558%
affinity for 5-HT1D (5-HT1D): negligible affinity
SERT occupancy (SERT; 10 mg/kg): 100%
SERT occupancy (SERT; 1-3 mg/kg): 50%
5-HT1A receptor IA (5-HT1A receptor [3]): 60-70%
affinity for 5-HT2C (5-HT2C): negligible affinity
ALO AIMs, development of LID [4]: significantly attenuated the development of LID
Ki [5]: 37 nM
FAS, pro-motor effects versus Vilazodone (0)+L-DOPA (6 mg/kg) [6]: significantly enhanced the pro-motor effects of L-DOPA
striatal PPT mRNA ([7]; FIG. 6B): significantly reduced it
striatal 5-HT1AR mRNA ([7]; day 23): did not affect striatal 5-HT1AR mRNA
striatal PPE mRNA ([7]; lesioned striata, L-DOPA 6 mg/kg, Vilazodone 20 mg/kg): modestly, though significantly reduced
striatal PPD mRNA [7, 10]: dose-dependently attenuated
striatal c-Fos mRNA [7, 10]: diminished
AUC increase [8, 11]: 64%-85%
Cmax increase [8, 11]: 147%-160%
bioavailability ([8]; under fed conditions): 72%
increase of [35S]GTPγS binding compared to vehicle (5-HT1A receptor [9]): fourfold
affinity for 5-HT2A (5-HT2A): negligible affinity
